This assay concerns the target T1, wild-type hBACE1 in CHO-K1 cells (Homo sapiens, UniProt P56817).
T1 construct: expressed in transfected cells; host or cells: CHO-K1
The assay is described as follows: Single molecule TIRF microscopy and bleaching step analysis in CHO-K1 cells. The assay is classed as cell-based. As to conditions: 200 nM probe, fixed CHO-K1, TIRF, after rolling background subtraction. The method, then:
Due to the high photostability and quantum yield of the Alexa dyes, the C3-compounds are potential tools for single molecule fluorescence microscopy of BACE1. […] CHO-K1 cells were transfected with wild-type BACE1. […] The samples were then recorded using total internal reflection fluorescence (TIRF) microscopy. […] Prior to analysis, ImageJ rolling background subtraction was applied[45] (Figure 6A, right panel). […] Single particles were identified and time traces of fluorescence intensity were extracted using GMimPro[46] (Figure 6B). The time traces were then subjected to a bleaching-step analysis with quickPBSA[47] (Figure 6B). […] The msfGFP was reported previously to display a fluorescence probability of about 50%, defined as combined probability of fluorescence, detection in the specific imaging system and identification in the analysis of a BACE1 molecule.[48] […] Here, the best fits indicated also a fluorescence probability of about 60%, but with a considerably lower fit error compared to dimers only (Figure 6D, blue traces).
The panel in the middle depicts typical single molecule complexes 48 h after transfection with 50 ng wild type BACE1. […] The insets highlight single fluorescence spots at higher magnification. […] (B) Single fluorescence spots were located and fluorescence intensities over time were extracted (see methods). […]

Molecules are shown by their SMILES.

T1 sequence (P56817 46-501): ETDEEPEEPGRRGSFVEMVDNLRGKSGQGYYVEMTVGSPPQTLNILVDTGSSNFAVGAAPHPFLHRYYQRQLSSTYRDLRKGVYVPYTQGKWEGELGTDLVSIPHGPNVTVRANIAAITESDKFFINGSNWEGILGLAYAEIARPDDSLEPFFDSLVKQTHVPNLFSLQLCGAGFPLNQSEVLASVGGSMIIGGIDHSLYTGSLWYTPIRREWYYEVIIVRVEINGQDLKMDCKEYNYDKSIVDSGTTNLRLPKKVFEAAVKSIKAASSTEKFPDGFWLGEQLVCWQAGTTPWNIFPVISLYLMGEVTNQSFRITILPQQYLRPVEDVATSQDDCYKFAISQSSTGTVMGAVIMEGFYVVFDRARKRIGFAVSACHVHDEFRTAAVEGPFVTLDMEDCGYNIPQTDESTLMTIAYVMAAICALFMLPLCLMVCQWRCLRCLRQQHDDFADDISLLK

Take `C[C@@H](NC(=O)c1cc(C(=O)N[C@@H](Cc2ccccc2)[C@H](O)CNC2CC2)cc(N(C)S(=O)(=O)CCCNC(=O)c2ccc(C(=O)O)c(-c3c4ccc(=N)c(S(=O)(=O)O)c-4oc4c(S(=O)(=O)O)c(N)ccc34)c2)c1)c1ccccc1` [2-(6-Amino-3-iminio-4,5-disulfo-3H-xanthen-9-yl)-4-((3-(N-(3-(((2S,3R)-4-(cyclopropylamino)-3-hydroxy-1-phenylbutan-2-yl)carbamoyl)-5-(((R)-1-phenylethyl)carbamoyl)phenyl)-N-methylsulfamoyl)propyl)carbamoyl)benzoate]: the signal-to-background ratio is recorded as 4.8.
